In general, IC50 refers to the point on the concentration scale where inhibition reaches its midpoint.

Where two headings read alike, the source gives them in different places.

Results on three compounds are retold here after US20220387460A1, “LIPOSOME COMPOSITIONS AND METHODS OF TREATMENT TARGETED TO TUMOR ENDOTHELIUM” (Washington University, priority 2019, published 2022).

For data set [1] the following is noted: in vivo; cited from earlier work.
Another data set concerns relapsed MM patients. As to conditions: combination treatment of AMD3100 and BTZ; cited from earlier work.
The test system of a further data set is MM.1S-GFP-Luc cells. As to the kind of experiment: MM tumor progression (BLI) and survival in MM.1S-GFP-Luc-bearing mice. Format: in vivo. The note with it: weekly intravenous, BTZ 1 mg/kg; for tumor progression / tumor growth (BLI): Y27632 2.5 mg/kg (FIGS. 6A-C, 8A-D); for survival of the mice: Y27632 2.5 mg/kg (FIGS. 6D-F, 9A-D). As for the experimental part:
Mice were randomized into 12 groups of 7 mice each, which received weekly intravenous injections of: (i) saline, (ii) Y27632 as a free drug (2.5 mg/kg), (iii) BTZ as a free drug (1 mg/kg), (iv) combination of free BTZ and free Y27632, (v) empty non-targeted liposomes, (vi) non-targeted liposomal Y27632 (2.5 mg/kg-equivalent), (vii) non-targeted liposomal BTZ (1 mg/kg), (viii) non-targeted liposomal combination of BTZ and Y27632 in the same liposome (2.5 mg/kg and 1 mg/kg, respectively), (ix) empty PSGL-1-targeted liposomes, (x) PSGL-1-targeted liposomal Y27632 (2.5 mg/kg), (xi) PSGL-1-targeted liposomal BTZ (1 mg/kg), (xii) PSGL-1-targeted liposomal combination of BTZ and Y27632 in the same liposome (2.5 mg/kg and 1 mg/kg, respectively). Tumor progression was assessed weekly by BLI, weight was recorded twice a week, and survival and general health of mice were recorded daily. The in vivo data were expressed as means±standard deviation.

In another data set the test system is MM1.S cells. Kind of data set: Immunoblotting of adhesion signaling proteins (pSRC, pFAK) in MM cells co-cultured with HUVECs. It counts as cell-based. As to conditions: 25 μM, 6 hours (FIG. 4A). As for the experimental part:
(§1) HUVECs and MM1.S cells were co-cultured overnight and treated with vehicle (control), free Y27632 (25 μM), free BTZ (5 nM), empty liposomes, liposomal Y27632 (25 μM), liposomal BTZ (5 nM) for 6 hours. MM cells were then separated from the HUVECs and both cell types were collected. The proteins were then extracted and subjected to immunoblotting for pSRC, pFAK, p21, pRB, cPARP, cCasp3, cCasp9, pAKT, pS6R, pERK, and α-Tubulin.
(§2) The immunoblotting protocol was performed as previously described below. Briefly, cells were lysed with 1× lysis buffer (Cell Signaling, #9803), the protein concentration was determined by Bradford assay (BioRad, Hercules, Calif.), and 50 μg of protein was loaded per lane. Electrophoresis was performed using NuPAGE 4%-12% Bis-Tris gels (Novex, Life Technologies, Grand Island, N.Y.) and transferred to a nitrocellulose membrane using iBlot (Invitrogen). Membranes were blocked with 5% non-fat milk in Tris-Buffered Saline/Tween20 (TBST) buffer and incubated with primary antibodies overnight at 4° C. The membranes were then washed with TBST for 30 minutes, incubated for 1 hour at room temperature with horseradish peroxidase (HRP)-conjugated secondary antibody, washed, and developed using Novex ECL Plus chemiluminescent Kit. Images were taken using a ChemiDoc XRS imaging system (Bio-Rad).

The nature of data set [2]: Drug entrapment (encapsulation) efficiency by ultracentrifugation and HPLC. It counts as physicochemical. As to conditions: drug loaded in liposomes; BTZ in lipid bilayer, Y27632 in hydrophilic core. As for the experimental part:
To evaluate loading efficiency, the liposomes were centrifuged at 38,000 rpm at 4° C. for 1 hour using a Beckman Optima™ XPN ultracentrifuge equipped with an SW 50.1 […] rotor (Beckman Coulter Inc., Fullerton, Calif., USA). The amount of BTZ and Y27632 in the supernatant was evaluated by HPLC as described in Example 9. The entrapment efficiency (EE) was calculated according to the following equation: EE=DT−DU/DT×100 where DT represents the total amount of drug added to the formulation during the preparation, and DU represents the amount of unincorporated drug found in the supernatant.

The test system of data set [3] is MM.1S cells. As to the kind of experiment: Trans-endothelial migration of MM cells in Boyden chamber with SDF-1. Format: cell-based. The note with it: 25 μM pre-treatment 3 hours, 30 nM SDF-1 (FIG. 4C). On the procedure:
Trans-endothelial migration was by incubating HUVECs (5×10^3 cells) overnight in the upper chamber of a Boyden chamber (Corning), followed by an adhesion assay. MM.1S cells were pre-treated with (or without) free Y27632 (25 μM) or liposomal Y27632 (25 μM equivalent) for 3 hours. The pre-treated MM.1 S cells were then placed in the upper migration chamber in the presence or absence of 30 nM SDF-1 in the lower chamber. After 3 hours of incubation, MM.1 S cells that migrated to the lower chambers were counted by flow cytometry. The in vitro data were expressed as means±standard deviation.

Data set [4] has as its system HUVECs. As to the kind of experiment: Immunoblotting of adhesion signaling proteins (pSRC, pFAK) in HUVECs co-cultured with MM cells. It counts as cell-based, human. The note with it: 25 μM, 6 hours (FIG. 4B). On the procedure:
as §1, §2

The test system of data set [5] is MM.1S cells. As to the kind of experiment: Viability of MM cells in co-culture with HUVECs (flow cytometry). The note with it: Homo sapiens; 24 hours, 0-50 nM, co-culture with HUVECs (FIG. 5B); read-out: IC50, killing of MM cells. It counts as cell-based. As for the experimental part: (§3) DiD-labeled HUVECs and DiO-labeled MM.1S cells were co-cultured overnight and treated with free BTZ (0-50 nM) or liposomal BTZ (0-50 nM-equivalent) for 24 hours, and the survival of the MMs and HUVECs was analyzed via flow cytometry. MM cells were gated as DiO+ cells and HUVECs were gated as DiD+ cells, and each cell population was counted and normalized against counting beads (Invitrogen), and survival was calculated as a percentage of vehicle-treated controls. The in vitro data were expressed as means±standard deviation.

The test system of data set [6] is HUVECs. As to the kind of experiment: Viability of HUVECs in co-culture with MM cells (flow cytometry). Format: cell-based, human. As to conditions: 24 hours, 0-50 nM, co-culture with MM.1S (FIG. 5C). On the procedure:
as §3
(A flow cytometer gives signals particle by particle.)

For data set [7] the following is noted: cited from earlier work.

For `c1cc(CN2CCCNCCNCCCNCC2)ccc1CN1CCCNCCNCCCNCC1` [AMD3100], the “pharmacokinetic (PK) half-life” value in [1] was 3 to 5 h. The overall response rate in the data set with relapsed MM patients was 510%.
Consider `C[C@@H](N)[C@H]1CC[C@H](C(=O)Nc2ccncc2)CC1` [Y27632], for which, in the data set with MM.1S-GFP-Luc cells, the “tumor progression / tumor growth (BLI)” value is “did not affect the tumor growth” and the “survival of the mice” value is given as “did not extend the survival”. In addition, in the data set on MM1.S cells, the “adhesion signaling proteins (pSRC and pFAK) in MM cells” value is given as “decreased adhesion signaling”. In addition, the “maximal encapsulation efficiency (EE)” value in [2] worked out at 55%. Besides, the “SDF-induced trans-endothelial migration of MM cells” value with MM.1S cells [3] is on record as “reversed”. In addition, the “adhesion signaling proteins (pSRC and pFAK) in HUVECs” value with HUVECs [4] is given as “decreased adhesion signaling”.
For the compound `CC(C)C[C@H](NC(=O)[C@H](Cc1ccccc1)NC(=O)c1cnccn1)B(O)O` [BTZ, bortezomib], the IC50 with MM.1S cells [5] is around 10 nM. Further, the “survival of HUVECs” value in the data set with HUVECs [6] was “No effect”. Moreover, in the data set with MM.1S-GFP-Luc cells, the “tumor progression / tumor growth (BLI)” value is “delayed significantly the tumor growth” and the “survival of the mice” value is on record as “significantly prolonged the survival”. Also, the “pharmacokinetic (PK) half-life” value in data set [1] is 40 h. The “maximal encapsulation efficiency (EE)” value in data set [2] is reported as 77%. Also, the maximum tolerated dose entry in data set [7] (intravenous bolus on days 1, 4, 8, and 11 of a 3-week cycle (Vorhees 2003)) is listed as “about 1.56 mg/m^2”. Further, the maximum tolerated dose in data set [7] (intravenously once or twice weekly, patients with solid tumors (Orlowski 2003)) is listed as 1.3 mg/m^2.
